The results in this text go back to US8142769B2, “Preparation and xenotransplantation of porcine islets” (Diabcell Pty Ltd, priority 2000, dated 2012).

Where only a bound is given, the exact number is not on record here.

The assay concerns porcine islets. The assay is described as follows: Static glucose stimulation (SGS): in vitro insulin secretion of porcine islets in culture. The assay is classed as cell-based. The source says:
Static glucose stimulation (SGS) is used to assess in vitro function of the porcine islets by exposing them to low and high concentrations of glucose and theophylline. Determination of the in vitro insulin secretory capacity is undertaken on both free islets (after 3 days in culture) and after their subsequent encapsulation.
Keep the cells 3 days in culture before Static Glucose Stimulation (SGS). SGS involves exposure of the cells to low and high concentration of glucose to check insulin production. […]
Islet endocrine function was assessed after 3 days in culture via static glucose stimulation.

Where [1] appears, read: Incubated 24 hrs with 1.0 ug/ml IgF-1.

`CCN(CC)CC(=O)Nc1c(C)cccc1C` [Lignocaine, reference compound]: the “Increase in insulin secretion in response to glucose challenge” value (Lignocaine during digestion, after 3 days in culture) turned out to be 3 fold. The “Insulin secretion in response to 19.4 mM Glucose + 10 mM Theophyline after 3 days culture post isolation” value (islets isolated by Collagenase digestion, with or without 1 mM Lignocaine) stood at 163.8 uU/hr/100 IEQ.
On to “Human Insulin-like Growth Factor I [IgF-1]”, for which the “Insulin secretion in response to 19.4 mM Glucose + 10 mM Theophylline, increase compared to control” value reads like this: (3 days post IgF-1 exposure) 1.5-fold increase; (14 days post IgF-1 exposure) 1.3-fold increase. Where the note is “IgF-1 tested at 0.1 and 1.0 ug/ml”, the “Concentration in culture sufficient to produce optimal insulin secretion during glucose challenge” value came to 0.1 µg/mL. The “Insulin secretion in response to 19.4 mM Glucose + 10 mM Theophylline after 3 days culture post isolation” value runs as follows: (Incubated 24 hrs with 0.1 ug/ml IgF-1, concentration comparison, different islet preparation) 58 uU/hr/100 IEQ; (Incubated 24 hrs with 0.1 ug/ml IgF-1 after isolation, control 75.2) 236 uU/hr/100 IEQ; under setting [1], 56.8 uU/hr/100 IEQ; (Incubated 3 days with 0.1 ug/ml IgF-1 without Nicotinamide, media without nicotinamide alone 55.9) 47.6 uU/hr/100 IEQ. For the same compound, the “Insulin secretion in response to 19.4 mM Glucose + 10 mM Theophylline 7 days post isolation” value is reported as 57.5 uU/hr/100 IEQ under setting [1] and 58 uU/hr/100 IEQ (Incubated 7 days with 0.1 ug/ml IgF-1). Further, under “porcine islets in culture exposed to IgF-1”, the “Increase of insulin response to glucose” value is no more than 3 fold. The “Benefit of culturing the islets beyond a 24 hrs period post isolation” value (variations on the duration of IgF-1 exposure) is “no increased benefit”.
Consider “IgF-2: insulin-like growth factor expressed in many cell types, used in islet culture at 0.1 ug/ml”, for which the “Effect on insulin production of porcine islet cells” value (0.1 ug/ml IgF-2, initial exposure of 24 hrs, transient to 3 days post exposure) was “appeared to increase insulin production”. For the same compound, the “Insulin secretion in response to 19.4 mM Glucose + 10 mM Theophyline after 3 days culture post isolation” value by setting is: (Incubated 24 hrs with 0.1 ug/ml IgF-2 day 1, control 75.2) 105.8/100 IEQ; (Incubated 24 hrs with 0.1 ug/ml IgF-2 day 1, second table, control 39.8) 32 uU/hr/100 IEQ. Further, the “Insulin secretion in response to 19.4 mM Glucose + 10 mM Theophyline after 7 days culture post isolation” value (Incubated 7 days with 0.1 ug/ml IgF-2, control 39.8) is reported as 38.4 uU/hr/100 IEQ. Where the note is “prolonged exposure to IgF-2 beyond 24 hrs”, the “Effect on insulin production of the islet cells in response to glucose” value was “failed to increase”.
